Structures can show the parent of a compound that is named as a salt.
These molecules were tested against serotonin 5-HT2C receptor (isoform type VSV, stably expressing CHO cell) (Homo sapiens, UniProt P28335, I156V/I160V/N158S) (assay: cell-based). Conditions: read-out: ratio to maximum response by 5-HT (1 μM).
Sequence of serotonin 5-HT2C receptor (isoform type VSV, stably expressing CHO cell) (P28335 33-458 I156V/N158S/I160V limits assumed): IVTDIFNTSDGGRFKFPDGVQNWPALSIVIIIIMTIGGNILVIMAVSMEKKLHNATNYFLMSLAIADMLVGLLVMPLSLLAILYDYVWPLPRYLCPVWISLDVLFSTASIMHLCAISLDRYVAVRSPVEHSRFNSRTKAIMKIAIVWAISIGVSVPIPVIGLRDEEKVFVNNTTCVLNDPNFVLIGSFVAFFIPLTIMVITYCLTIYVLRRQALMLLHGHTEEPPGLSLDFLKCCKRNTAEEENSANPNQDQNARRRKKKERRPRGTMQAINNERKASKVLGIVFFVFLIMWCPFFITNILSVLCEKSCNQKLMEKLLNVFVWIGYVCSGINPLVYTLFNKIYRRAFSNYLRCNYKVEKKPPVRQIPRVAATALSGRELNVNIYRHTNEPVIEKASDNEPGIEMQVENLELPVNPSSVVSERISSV

SMILES	Emax [%]
Fc1cccc(-c2csc3c2OCCNC3)c1 [Example 2, 8-(3-fluorophenyl)-2,3,4,5-tetrahydrothieno[2,3-f][1,4]oxazepine 1 hydrochloride]	101
c1sc2c(c1C1CC1)OCCNC2 [Example 3, 8-cyclopropyl-2,3,4,5-tetrahydrothieno[2,3-f][1,4]oxazepine 1 hydrochloride]	98
CC(C)c1csc2c1OCCNC2 [Example 4, 8-(1-methylethyl)-2,3,4,5-tetrahydrothieno[2,3-f][1,4]oxazepine 1 hydrochloride]	99
c1sc2c(c1C1CCC1)OCCNC2 [Example 5, 8-cyclobutyl-2,3,4,5-tetrahydrothieno[2,3-f][1,4]oxazepine 1 hydrochloride]	107
COc1cccc(-c2csc3c2OC(C)CNC3)c1 (stereo not drawn) [Example 6, 8-(3-methoxyphenyl)-2-methyl-2,3,4,5-tetrahydrothieno[2,3-f][1,4]oxazepine 1 hydrochloride]	97
C[C@H]1CNCc2scc(-c3cccc(F)c3)c2O1 [Example 12, (2S)-8-(3-fluorophenyl)-2-methyl-2,3,4,5-tetrahydrothieno[2,3-f][1,4]oxazepine 1 hydrochloride]	101
C[C@H]1CNCc2scc(C3CC3)c2O1 [Example 14, (2S)-8-cyclopropyl-2-methyl-2,3,4,5-tetrahydrothieno[2,3-f][1,4]oxazepine 1 hydrochloride]	100
CC(C)c1csc2c1O[C@@H](C)CNC2 [Example 15, (2S)-2-methyl-8-(1-methylethyl)-2,3,4,5-tetrahydrothieno[2,3-f][1,4]oxazepine 1 hydrochloride]	96
CCCc1csc2c1O[C@@H](C)CNC2 [Example 16, (2S)-2-methyl-8-propyl-2,3,4,5-tetrahydrothieno[2,3-f][1,4]oxazepine 1 hydrochloride]	97
Cc1sc2c(c1C1CC1)OCCNC2 [Example 17, 8-cyclopropyl-7-methyl-2,3,4,5-tetrahydrothieno[2,3-f][1,4]oxazepine 1 hydrochloride]	91
CC(c1csc2c1OCCNC2)C(F)(F)F (stereo not drawn) [Example 20, 8-(2,2,2-trifluoro-1-methylethyl)-2,3,4,5-tetrahydrothieno[2,3-f][1,4]oxazepine 1 hydrochloride]	85
CC(c1csc2c1O[C@@H](C)CNC2)C(F)(F)F (stereo partly drawn) [Example 21, (2S)-2-methyl-8-(2,2,2-trifluoro-1-methylethyl)-2,3,4,5-tetrahydrothieno[2,3-f][1,4]oxazepine 1 hydrochloride]	94
